Laboratory results from patent publication US9655887B2, “Pharmaceutical composition and the use thereof, and application regime of said pharmaceutical composition for on-demand contraception” (BAYER PHARMA AKTIENGESELLSCHAFT, priority 2013, dated 2017).
Like-named read-outs stand apart in the source and are kept apart here.

Columns and labels:
[1] = tested on: ovulation; conditions: cited from earlier work
[2] = tested on: fertility of the female rat; test: Single administration of EP2 receptor antagonists and COX inhibitors alone or in combination, fertility of the rat (implantation sites); type: in vivo, female Han Wistar rats; conditions: single administration in proestrus, Indomethacin 1 mg/animal, 16:00
Protocol: 6. Effect of a Single Administration of EP2 Receptor Antagonists and COX Inhibitors Alone or in Combination on the Fertility of the Rat
In the experiments below, female Han Wistar rats having a weight of 200-270 g were used. The animals were kept in Makrolon cages in rooms with controlled lighting (12 hours of darkness; 12 hours of light), fed with a standard diet and provided with water ad libitum.
EP2 receptor antagonists were dissolved in benzyl benzoate/castor oil (1+4 v/v), and the dose was administered in a volume of 1 ml/kg of body weight s.c. Optionally, EP2 receptor antagonists were also administered orally in the same vehicle as the COX inhibitors (see below). […]
The COX inhibitors were suspended in a carrier liquid (85 mg of Myrj®53 polyoxyl(50)stearate; CAS No. 9004-99-3) in 100 ml of 0.9% w/v NaCl solution), and the dose corresponding to the treatment group was administered in a volume of 2 ml/kg of body weight.
Prior to the start of the experiment, two cycles were observed using vaginal swabs. Only animals having a regular 4-day cycle were used in the experiment. The animals were randomized to the treatment groups.
The animals were treated once in the proestrus, the day in the cycle when the LH peak occurs in the evening, with the test substances either alone or in combination. On the evening of the proestrus, the female animals mated with a male rat. Successive mating was confirmed by detection of vaginal sperms in the vaginal swab the next morning. The effect on fertility was determined 9-15 days after mating by the number of implantation sites of the animals. […]

[3] = molecular target: EP4 subtype of the human PGE2 receptor (hEP4) (Homo sapiens, UniProt P35408); test: cAMP antagonism test, human prostaglandin E2 (subtype EP4) receptor signal; type: cell-based; conditions: selectivity towards hEP4, IC50 measured by cAMP antagonism test
Description: 2. Detection of Antagonism to the Human Prostaglandin E2 (Subtype EP4) Receptor Signal
The binding of PGE2 to the EP4 subtype of the human PGE2 receptor induces the activation of membrane-located adenylate cyclases and leads to the formation of cAMP. In the presence of the phosphodiesterase inhibitor IBMX, the cAMP accumulated owing to this stimulation and released by cell lysis is used in a competitive detection method. In this test, the cAMP present in the lysate competes with a fluorescence-labelled cAMP (cAMP-d2) for binding to an Eu cryptate-labelled anti-cAMP antibody.
(§1) In the absence of cellular cAMP a maximal signal is produced, which is attributable to the binding of this cAMP-d2 molecule to the antibody. After excitation of the […] at 337 nm, there is a fluorescence resonance energy transfer (FRET) to the Eu cryptate molecules of the anti-cAMP antibody (labelled therewith), followed by a long-lasting emission signal at 665 nm (and at […]). Both signals are measured in a suitable measurement instrument with a time delay, i.e. after decay of the background fluorescence. Any increase in the low FRET signal caused by prostaglandin E2 administration (measured as well ratio change=emission665nm/emission620nm*10000) indicates the action of antagonists.
2.2.1. Test for Antagonism (Data Per Well of a 384-Well Plate):
To a test plate with the substance solutions already added (0.05 μl; 100% DMSO, concentration range from 0.8 nM-16.5 uM) were added 4 μl of a cAMP-d2/cell suspension (312500 cells/ml). After a 20-minute preincubation at room temperature (RT), 2 μl of a 3×PGE2 solution (0.3 nM, in PBS-IBMX) were added and incubated in the presence of the agonist for a further 60 mins at RT (volume: ˜6 μl). Next the reaction was stopped by addition of 2 μl of lysis buffer and incubated for a further 20 mins at RT before the actual measurement (volume: ˜8 μl).

[4] = molecular target: T1, human PGD receptor (hDP) (Homo sapiens, UniProt Q13258); test: cAMP antagonism test, human prostaglandin D receptor signal; type: cell-based; conditions: selectivity towards hDP, IC50 measured by cAMP antagonism test
T1 sequence (Q13258 1-359): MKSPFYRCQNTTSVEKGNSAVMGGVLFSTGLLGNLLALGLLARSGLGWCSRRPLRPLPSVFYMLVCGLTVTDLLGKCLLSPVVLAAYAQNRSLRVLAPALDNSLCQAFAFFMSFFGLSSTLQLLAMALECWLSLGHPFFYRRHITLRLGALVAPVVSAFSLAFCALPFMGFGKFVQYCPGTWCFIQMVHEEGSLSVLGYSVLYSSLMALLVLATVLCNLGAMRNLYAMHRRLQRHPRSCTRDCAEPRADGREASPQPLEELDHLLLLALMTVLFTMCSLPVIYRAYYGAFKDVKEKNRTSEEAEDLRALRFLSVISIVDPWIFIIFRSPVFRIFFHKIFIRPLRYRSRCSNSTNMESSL
Description: 3. Detection of Antagonism to the Human Prostaglandin D Receptor Signal
The binding of prostaglandin D2 to the human PGD receptor induces the activation of membrane-located adenylate cyclases and leads to the formation of cAMP. In the presence of the phosphodiesterase inhibitor IBMX, the cAMP accumulated owing to this stimulation and released by cell lysis is used in a competitive detection method. In this test, the cAMP present in the lysate competes with a fluorescence-labelled cAMP (cAMP-d2) for binding to an Eu cryptate-labelled anti-cAMP antibody.
as §1, with “cellular cAMP,” for “cellular cAMP”
3.2.1. Test for Antagonism (Data Per Well of a 384-Well Plate):
To a test plate with the substance solutions already added (0.05 μl; 100% DMSO, concentration range from 0.8 nM-16.5 nM) were added 4 μl of a cAMP-d2/cell suspension (625000 cells/ml). After a 20-minute preincubation at room temperature (RT), 2 μl of a 3×PGD2 solution (6 nM, in PBS-IBMX) were added and incubated in the presence of the agonist for a further 30 mins at RT (volume: ˜6 μl). Next the reaction was stopped by addition of 2 μl of lysis buffer and incubated for a further 20 mins at RT before the actual measurement (volume: ˜8 μl).

Sequence of EP4 subtype of the human PGE2 receptor (hEP4) (P35408 whole entry): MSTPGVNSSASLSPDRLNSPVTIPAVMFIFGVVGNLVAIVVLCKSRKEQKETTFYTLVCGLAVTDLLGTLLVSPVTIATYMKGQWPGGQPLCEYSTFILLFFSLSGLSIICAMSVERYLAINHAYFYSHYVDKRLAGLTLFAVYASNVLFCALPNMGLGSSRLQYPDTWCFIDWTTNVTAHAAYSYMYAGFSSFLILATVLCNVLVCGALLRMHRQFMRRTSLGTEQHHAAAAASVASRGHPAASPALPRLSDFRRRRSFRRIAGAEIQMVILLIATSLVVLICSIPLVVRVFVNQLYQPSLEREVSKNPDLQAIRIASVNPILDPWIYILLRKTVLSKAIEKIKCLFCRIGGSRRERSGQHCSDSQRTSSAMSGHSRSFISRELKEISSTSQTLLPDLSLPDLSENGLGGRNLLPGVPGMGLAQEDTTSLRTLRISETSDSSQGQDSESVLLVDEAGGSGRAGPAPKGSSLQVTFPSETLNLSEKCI

Row | Selectivity hEP2/hEP4 [3] | Selectivity hEP2/hDP [4] | Compound | other results
1 | xxx (xxx >100) | xxx (xxx >100) | Cc1c(C(=O)NCC2CCCCO2)ccc2nn(CC3CCN(C(=O)c4ccc(Oc5ccc(C(F)(F)F)cc5)cc4)CC3)cc12 (single isomer, unassigned) [Example 416, (R or S)-4-methyl-N-(3,4,5,6-tetrahydro-2H-pyran-2-ylmethyl)-2-[(1-{4-[4-(trifluoromethyl)phenoxy]benzoyl}piperidin-4-yl)methyl]-2H-indazole-5-carboxamide] | –
2 | xxx (xxx >100) | xxx (xxx >100) | Cc1c(C(=O)NCC2COCCO2)ccc2nn(CC3CCN(C(=O)c4ccc(Oc5ccc(C(F)(F)F)cc5)cc4)CC3)cc12 (single isomer, unassigned) [Example 418, (R or S)—N-(1,4-dioxan-2-ylmethyl)-4-methyl-2-[(1-{4-[4-(trifluoromethyl)-phenoxy]benzoyl}piperidin-4-yl)methyl]-2H-indazole-5-carboxamide] | –
3 | xxx (xxx >100) | xxx (xxx >100) | Cc1c(C(=O)NCC2COCCO2)ccc2nn(CC3CCN(C(=O)c4ccc(Cl)cc4)CC3)cc12 (single isomer, unassigned) [Example 415, (S or R)-2-{[1-(4-chlorobenzoyl)piperidin-4-yl]methyl}-N-(1,4-dioxan-2-yl-methyl)-4-methyl-2H-indazole-5-carboxamide] | –

More lines, now with the values behind:

Row | Compound | Selectivity hEP2/hEP4 [3] | Selectivity hEP2/hDP [4] | other results
4 | CS(=O)(=O)c1ccc(C2=C(c3ccccc3)C(=O)OC2)cc1 [rofecoxib, 4-(4-mesylphenyl)-3-phenylfuran-2(5H)-one] | – | – | delay of ovulation ([1]; 25 mg on 9 successive days, in 4 of 6 patients (Pall et al.)): more than 48 hours
5 | Cc1ccc(-c2cc(C(F)(F)F)nn2-c2ccc(S(N)(=O)=O)cc2)cc1 [celecoxib, 4-[5-(4-methylphenyl)-3-(trifluoromethyl)-1H-pyrazol-1-yl]benzenesulphonamide] | – | – | cycle length ([1]; daily administration of 400 mg over the entire cycle, increased from 27.2+/−2.4 days (Edelmann et al. 2010)): 28.5 ± 2.5 days; increase in ovulatory dysfunction ([1]; daily oral administration of 400 mg, depending on time and duration of administration (Edelmann et al. 2013)): 25-30%
6 | COc1ccc2c(c1)c(CC(=O)O)c(C)n2C(=O)c1ccc(Cl)cc1 [Indomethacin, indomethacin, reference compound] | – | – | Absolute implantations number of 6 animals [2]: 67; Implantations per animal (mean ± SD) [2]: 11.2 ± 2.9; effect on ovulation ([1]; 2×100 mg per day over 5 days (Killick and Elstein 1987)): inhibition of ovulation; delay of ovulation ([1]; 3×50 mg per day for at least 3 days, 6 women, in 5 cases (Athanasious et al.)): 2 to 12 days
7 | Cc1c(C(=O)NCC2CCCCO2)ccc2nn(CC3CCN(C(=O)c4ccc(Cl)cc4)CC3)cc12 (single isomer, unassigned) [Example 240, (R or S)-2-{[1-(4-chlorobenzoyl)piperidin-4-yl]methyl}-4-methyl-N-(3,4,5,6-tetrahydro-2H-pyran-2-ylmethyl)-2H-indazole-5-carboxamide] | xxx (xxx >100) | xxx (xxx >100) | –
8 | Cc1c(C(=O)NCC2CCCCO2)ccc2nn(CC3CCN(C(=O)c4ccc(Cl)cc4)CC3)cc12 (single isomer, unassigned) [Example 241, (S or R)-2-{[1-(4-chlorobenzoyl)piperidin-4-yl]methyl}-4-methyl-N-(3,4,5,6-tetrahydro-2H-pyran-2-ylmethyl)-2H-indazole-5-carboxamide] | xxx (xxx >100) | xxx (xxx >100) | –
9 | Cc1c(C(=O)NCC(C)OC2CCC2)ccc2nn(CC3CN(C(=O)c4ccc(Cl)cc4)C3)cc12 (single isomer, unassigned) [Example 155, (S or R)-2-{[1-(4-chlorobenzoyl)azetidin-3-yl]methyl}-N-[2-(cyclobutyloxy)-propyl]-4-methyl-2H-indazole-5-carboxamide] | xxx (xxx >100) | xxx (xxx >100) | –
